# Test results: ChEMBL document CHEMBL4673372, “1,2,3-triazole-thiazole hybrids: Synthesis, in vitro antimicrobial activity and antibiofilm studies” (Bioorg Med Chem Lett, 2021)
# Tested on: not listed separately
# Test: Selectivity index, ratio of CC50 for human THP-1 cells to MIC for Staphylococcus aureus MTCC 96
# Format: toxicity
# Settings: not given; call rule not given here
row,Structure (SMILES),selectivity ratio
1,COc1ccc(-n2cc(COc3ccc(/C=N/Nc4nc(-c5cc6ccccc6oc5=O)cs4)cc3)nn2)cc1,2.58

# Tested on: not listed separately
# Test: Cytotoxicity against human THP-1 cells
# Format: cell-based
# Settings: not given
row,Structure (SMILES),CC50
1,COc1ccc(-n2cc(COc3ccc(/C=N/Nc4nc(-c5cc6ccccc6oc5=O)cs4)cc3)nn2)cc1,36.3 µM

# Tested on: THP-1
# Test: Cytotoxicity against human THP-1 cells assessed as cell damage at 200 uM by LDH assay
# Format: cell-based
# Settings: thp-1, 200 µM
row,Structure (SMILES),Activity
1,COc1ccc(-n2cc(COc3ccc(/C=N/Nc4nc(-c5cc6ccccc6oc5=O)cs4)cc3)nn2)cc1,Toxic

# Tested on: THP-1
# Test: Cytotoxicity against human THP-1 cells assessed as reduction in cell viability at 200 uM by MTT assay
# Format: cell-based
# Settings: thp-1, 200 µM
row,Structure (SMILES),Activity
1,COc1ccc(-n2cc(COc3ccc(/C=N/Nc4nc(-c5cc6ccccc6oc5=O)cs4)cc3)nn2)cc1,Toxic

# Tested on: Candida albicans
# Test: Inhibition of biofilm formation in Candida albicans MTCC 3017 incubated for 24 hrs by crystal violet staining based microtiter plate method
# Format: functional, organism-based
# Settings: Candida albicans, MTCC 3017, 24 h; read-out: IC50
row,Structure (SMILES),IC50
1,COc1ccc(-n2cc(COc3ccc(/C=N/Nc4nc(-c5cc6ccccc6oc5=O)cs4)cc3)nn2)cc1,63.5 µM

# Tested on: Pseudomonas aeruginosa
# Test: Inhibition of biofilm formation in Pseudomonas aeruginosa MTCC 2453 incubated for 24 hrs by crystal violet staining based microtiter plate method
# Format: functional, organism-based
# Settings: Pseudomonas aeruginosa, MTCC 2453, 24 h; read-out: IC50
row,Structure (SMILES),IC50
1,COc1ccc(-n2cc(COc3ccc(/C=N/Nc4nc(-c5cc6ccccc6oc5=O)cs4)cc3)nn2)cc1,19.5 µM

# Tested on: Escherichia coli
# Test: Inhibition of biofilm formation in Escherichia coli MTCC 739 incubated for 24 hrs by crystal violet staining based microtiter plate method
# Format: functional, organism-based
# Settings: Escherichia coli, MTCC 739, 24 h; read-out: IC50
row,Structure (SMILES),IC50
1,COc1ccc(-n2cc(COc3ccc(/C=N/Nc4nc(-c5cc6ccccc6oc5=O)cs4)cc3)nn2)cc1,31.3 µM

# Tested on: Raoultella planticola
# Test: Inhibition of biofilm formation in Klebsiella planticola MTCC 530 incubated for 24 hrs by crystal violet staining based microtiter plate method
# Format: functional, organism-based
# Settings: Klebsiella planticola, MTCC 530, 24 h; read-out: IC50
row,Structure (SMILES),IC50
1,COc1ccc(-n2cc(COc3ccc(/C=N/Nc4nc(-c5cc6ccccc6oc5=O)cs4)cc3)nn2)cc1,35.7 µM

# Tested on: Micrococcus luteus
# Test: Inhibition of biofilm formation in Micrococcus luteus MTCC 2470 incubated for 24 hrs by crystal violet staining based microtiter plate method
# Format: functional, organism-based
# Settings: not given
row,Structure (SMILES),IC50
1,COc1ccc(-n2cc(COc3ccc(/C=N/Nc4nc(-c5cc6ccccc6oc5=O)cs4)cc3)nn2)cc1,Not Active

# Tested on: Bacillus subtilis
# Test: Inhibition of biofilm formation in Bacillus subtilis MTCC 121 incubated for 24 hrs by crystal violet staining based microtiter plate method
# Format: functional, organism-based
# Settings: Bacillus subtilis, MTCC 121, 24 h; read-out: IC50
row,Structure (SMILES),IC50
1,COc1ccc(-n2cc(COc3ccc(/C=N/Nc4nc(-c5cc6ccccc6oc5=O)cs4)cc3)nn2)cc1,6.6 µM

# Tested on: Staphylococcus aureus
# Test: Inhibition of biofilm formation in Staphylococcus aureus MLS16 MTCC 2940 incubated for 24 hrs by crystal violet staining based microtiter plate method
# Format: functional, organism-based
# Settings: not given
row,Structure (SMILES),IC50
1,COc1ccc(-n2cc(COc3ccc(/C=N/Nc4nc(-c5cc6ccccc6oc5=O)cs4)cc3)nn2)cc1,Not Active

# Tested on: Staphylococcus aureus
# Test: Inhibition of biofilm formation in Staphylococcus aureus […] incubated for 24 hrs by crystal violet staining based microtiter plate method
# Format: functional, organism-based
# Settings: not given
row,Structure (SMILES),IC50
1,COc1ccc(-n2cc(COc3ccc(/C=N/Nc4nc(-c5cc6ccccc6oc5=O)cs4)cc3)nn2)cc1,Not Active

# Tested on: Pichia sporocuriosa
# Test: Antifungal activity against Issatchenkia hanoiensis MTCC 4755
# Format: functional
# Settings: not given
row,Structure (SMILES),MIC
1,COc1ccc(-n2cc(COc3ccc(/C=N/Nc4nc(-c5cc6ccccc6oc5=O)cs4)cc3)nn2)cc1,7.1 µM

# Tested on: Pichia kudriavzevii
# Test: Antifungal activity against Candida krusei MTCC 3020
# Format: functional
# Settings: not given
row,Structure (SMILES),MIC
1,COc1ccc(-n2cc(COc3ccc(/C=N/Nc4nc(-c5cc6ccccc6oc5=O)cs4)cc3)nn2)cc1,> 227 µM

# Tested on: Nakaseomyces glabratus
# Test: Antifungal activity against Candida glabrata MTCC 3019
# Format: functional
# Settings: not given
row,Structure (SMILES),MIC
1,COc1ccc(-n2cc(COc3ccc(/C=N/Nc4nc(-c5cc6ccccc6oc5=O)cs4)cc3)nn2)cc1,> 227 µM

# Tested on: [Candida] aaseri
# Test: Antifungal activity against Candida aaseri MTCC 1962
# Format: functional
# Settings: Yamadazyma aaseri
row,Structure (SMILES),MIC
1,COc1ccc(-n2cc(COc3ccc(/C=N/Nc4nc(-c5cc6ccccc6oc5=O)cs4)cc3)nn2)cc1,> 227 µM

# Tested on: Candida parapsilosis
# Test: Antifungal activity against Candida parapsilosis MTCC 1745
# Format: functional
# Settings: Lodderomyces parapsilosis
row,Structure (SMILES),MIC
1,COc1ccc(-n2cc(COc3ccc(/C=N/Nc4nc(-c5cc6ccccc6oc5=O)cs4)cc3)nn2)cc1,> 227 µM

# Tested on: Candida albicans
# Test: Antifungal activity against Candida albicans MTCC 4748
# Format: functional
# Settings: not given
row,Structure (SMILES),MIC
1,COc1ccc(-n2cc(COc3ccc(/C=N/Nc4nc(-c5cc6ccccc6oc5=O)cs4)cc3)nn2)cc1,> 227 µM

# Tested on: Candida albicans
# Test: Antifungal activity against Candida albicans MTCC 3958
# Format: functional
# Settings: not given
row,Structure (SMILES),MIC
1,COc1ccc(-n2cc(COc3ccc(/C=N/Nc4nc(-c5cc6ccccc6oc5=O)cs4)cc3)nn2)cc1,> 227 µM

# Tested on: Candida albicans
# Test: Antifungal activity against Candida albicans MTCC 3018
# Format: functional
# Settings: not given
row,Structure (SMILES),MIC
1,COc1ccc(-n2cc(COc3ccc(/C=N/Nc4nc(-c5cc6ccccc6oc5=O)cs4)cc3)nn2)cc1,> 227 µM

# Tested on: Candida albicans
# Test: Antifungal activity against Candida albicans MTCC 1637
# Format: functional
# Settings: not given
row,Structure (SMILES),MIC
1,COc1ccc(-n2cc(COc3ccc(/C=N/Nc4nc(-c5cc6ccccc6oc5=O)cs4)cc3)nn2)cc1,> 227 µM

# Tested on: Candida albicans
# Test: Antifungal activity against Candida albicans MTCC 854
# Format: functional
# Settings: not given
row,Structure (SMILES),MIC
1,COc1ccc(-n2cc(COc3ccc(/C=N/Nc4nc(-c5cc6ccccc6oc5=O)cs4)cc3)nn2)cc1,7.1 µM

# Tested on: Pichia sporocuriosa
# Test: Fungicidal activity against Issatchenkia hanoiensis MTCC 4755
# Format: functional
# Settings: not given
row,Structure (SMILES),MFC
1,COc1ccc(-n2cc(COc3ccc(/C=N/Nc4nc(-c5cc6ccccc6oc5=O)cs4)cc3)nn2)cc1,14.2 µM

# Tested on: Candida albicans
# Test: Fungicidal activity against Candida albicans MTCC 183
# Format: functional
# Settings: not given
row,Structure (SMILES),MFC
1,COc1ccc(-n2cc(COc3ccc(/C=N/Nc4nc(-c5cc6ccccc6oc5=O)cs4)cc3)nn2)cc1,56.7 µM

# Tested on: Candida albicans
# Test: Fungicidal activity against Candida albicans MTCC 854
# Format: functional
# Settings: not given
row,Structure (SMILES),MFC
1,COc1ccc(-n2cc(COc3ccc(/C=N/Nc4nc(-c5cc6ccccc6oc5=O)cs4)cc3)nn2)cc1,14.2 µM

# Tested on: Pseudomonas aeruginosa
# Test: Bactericidal activity against Pseudomonas aeruginosa MTCC 2453
# Format: functional
# Settings: not given
row,Structure (SMILES),MBC
1,COc1ccc(-n2cc(COc3ccc(/C=N/Nc4nc(-c5cc6ccccc6oc5=O)cs4)cc3)nn2)cc1,56.6 µM

# Tested on: Raoultella planticola
# Test: Bactericidal activity against Klebsiella planticola MTCC 530
# Format: functional
# Settings: not given
row,Structure (SMILES),MBC
1,COc1ccc(-n2cc(COc3ccc(/C=N/Nc4nc(-c5cc6ccccc6oc5=O)cs4)cc3)nn2)cc1,28.3 µM

# Tested on: Micrococcus luteus
# Test: Bactericidal activity against Micrococcus luteus MTCC 2470
# Format: functional
# Settings: not given
row,Structure (SMILES),MBC
1,COc1ccc(-n2cc(COc3ccc(/C=N/Nc4nc(-c5cc6ccccc6oc5=O)cs4)cc3)nn2)cc1,14.1 µM

# Tested on: Bacillus subtilis
# Test: Bactericidal activity against Bacillus subtilis MTCC 121
# Format: functional
# Settings: not given
row,Structure (SMILES),MBC
1,COc1ccc(-n2cc(COc3ccc(/C=N/Nc4nc(-c5cc6ccccc6oc5=O)cs4)cc3)nn2)cc1,14.1 µM

# Tested on: Staphylococcus aureus
# Test: Bactericidal activity against Staphylococcus aureus MTCC 96
# Format: functional
# Settings: not given
row,Structure (SMILES),MBC
1,COc1ccc(-n2cc(COc3ccc(/C=N/Nc4nc(-c5cc6ccccc6oc5=O)cs4)cc3)nn2)cc1,28.3 µM

# Tested on: Candida albicans
# Test: Antifungal activity against Candida albicans MTCC 227
# Format: functional
# Settings: not given
row,Structure (SMILES),MIC
1,COc1ccc(-n2cc(COc3ccc(/C=N/Nc4nc(-c5cc6ccccc6oc5=O)cs4)cc3)nn2)cc1,> 227 µM

# Tested on: Candida albicans
# Test: Antifungal activity against Candida albicans MTCC 183
# Format: functional
# Settings: not given
row,Structure (SMILES),MIC
1,COc1ccc(-n2cc(COc3ccc(/C=N/Nc4nc(-c5cc6ccccc6oc5=O)cs4)cc3)nn2)cc1,14.2 µM

# Tested on: Pseudomonas aeruginosa
# Test: Antibacterial activity against Pseudomonas aeruginosa MTCC 2453 assessed as inhibition of bacterial growth by microtiter broth dilution method
# Format: functional
# Settings: not given
row,Structure (SMILES),MIC
1,COc1ccc(-n2cc(COc3ccc(/C=N/Nc4nc(-c5cc6ccccc6oc5=O)cs4)cc3)nn2)cc1,14.1 µM

# Tested on: Escherichia coli
# Test: Antibacterial activity against Escherichia coli MTCC 739 assessed as inhibition of bacterial growth by microtiter broth dilution method
# Format: functional
# Settings: not given
row,Structure (SMILES),MIC
1,COc1ccc(-n2cc(COc3ccc(/C=N/Nc4nc(-c5cc6ccccc6oc5=O)cs4)cc3)nn2)cc1,> 227 µM

# Tested on: Raoultella planticola
# Test: Antibacterial activity against Klebsiella planticola MTCC 530 assessed as inhibition of bacterial growth by microtiter broth dilution method
# Format: functional
# Settings: not given
row,Structure (SMILES),MIC
1,COc1ccc(-n2cc(COc3ccc(/C=N/Nc4nc(-c5cc6ccccc6oc5=O)cs4)cc3)nn2)cc1,14.1 µM

# Tested on: Micrococcus luteus
# Test: Antibacterial activity against Micrococcus luteus MTCC 2470 assessed as inhibition of bacterial growth by microtiter broth dilution method
# Format: functional
# Settings: not given
row,Structure (SMILES),MIC
1,COc1ccc(-n2cc(COc3ccc(/C=N/Nc4nc(-c5cc6ccccc6oc5=O)cs4)cc3)nn2)cc1,7 µM

# Tested on: Bacillus subtilis
# Test: Antibacterial activity against Bacillus subtilis MTCC 121 assessed as inhibition of bacterial growth by microtiter broth dilution method
# Format: functional
# Settings: not given
row,Structure (SMILES),MIC
1,COc1ccc(-n2cc(COc3ccc(/C=N/Nc4nc(-c5cc6ccccc6oc5=O)cs4)cc3)nn2)cc1,7 µM

# Tested on: Staphylococcus aureus
# Test: Antibacterial activity against Staphylococcus aureus MLS16 MTCC 2940 assessed as inhibition of bacterial growth by microtiter broth dilution method
# Format: functional
# Settings: not given
row,Structure (SMILES),MIC
1,COc1ccc(-n2cc(COc3ccc(/C=N/Nc4nc(-c5cc6ccccc6oc5=O)cs4)cc3)nn2)cc1,> 227 µM

# Tested on: Staphylococcus aureus
# Test: Antibacterial activity against Staphylococcus aureus MTCC 96 assessed as inhibition of bacterial growth by microtiter broth dilution method
# Format: functional
# Settings: not given
row,Structure (SMILES),MIC
1,COc1ccc(-n2cc(COc3ccc(/C=N/Nc4nc(-c5cc6ccccc6oc5=O)cs4)cc3)nn2)cc1,14.1 µM
